One data set has as its target recombinant PI3 kinase α (Homo sapiens (Human), UniProt P42336). Put plainly: Enzyme Inhibition Assay (HTRF PI3K enzyme assay, TR-FRET). It counts as biochemical. To be noted: activity range; read-out: PI3 Kinase Inhibition IC50 values at stated Isozyme α. In a few lines: (§1)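 TR-FRET readout after 15-18 hr at RT with biotinylated PIP3, GST-tagged GRP1 PH domain and europium/APC fluorophores; product PIP3 displaces the tracer and lowers the signal. Beforehand, compound and PIP2 were reacted for 2 hr at RT with human recombinant PI3Kα, δ or γ.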
On the technique in general: In TR-FRET formats the signal depends on donor and acceptor labels being close together.

In the next data set the target is recombinant PI3 kinase γ (Homo sapiens (Human), UniProt P48736). Described as above. It counts as biochemical. The note with it: activity range; read-out: PI3 Kinase Inhibition IC50 values at stated Isozyme γ. The procedure, abridged: as §1
A further data set concerns the target recombinant PI3 kinase δ (Homo sapiens (Human), UniProt O00329). The description is as above. Type of data set: biochemical. The note with it: activity range; read-out: PI3 Kinase Inhibition IC50 values at stated Isozyme δ. The procedure, abridged: as §1
In data set [1] the test system is H2O2 induced pAkt in D-U937 cells. Briefly: PI3Kδ Cell Based Assay (H2O2 induced pAkt). The note with it: Homo sapiens, dU937; activity range; D-U937 cells; read-out: Cellular Activity IC50 values (H2O2 induced pAkt D-U937 Cells). The procedure, abridged:
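Read-out is the pAkt/total Akt signal ratio, measured with anti-pAkt and anti-pan-Akt antibodies after H2O2 stimulation. Cells were U937 monocytes given PMA (100 ng/mL) for 48 to 72 hr. IC50 values fitted from compound serial dilutions.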

In data set [2] the test system is PMA-differentiated U937 cells. Briefly: MTT Assay (cell viability). It counts as cell-based, Human. To be noted: percentage loss of cell viability; for Cell Viability MTT Assay in D-U937 cells at 4 hr: 4 hr in 5% FCS; for Cell Viability MTT Assay in D-U937 cells at 24 hr: 24 hr in 10% FCS. The procedure, abridged: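 Differentiated U937 cells treated with compound for 4 hr (5% FCS) or 24 hr (10% FCS), then given MTT for 1 hr; formazan dissolved in DMSO and absorbance read at 550 nm. Viability loss expressed as % versus 0.5% DMSO vehicle.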

Sequence of recombinant PI3 kinase α (P42336 whole entry, the tested form may be a part): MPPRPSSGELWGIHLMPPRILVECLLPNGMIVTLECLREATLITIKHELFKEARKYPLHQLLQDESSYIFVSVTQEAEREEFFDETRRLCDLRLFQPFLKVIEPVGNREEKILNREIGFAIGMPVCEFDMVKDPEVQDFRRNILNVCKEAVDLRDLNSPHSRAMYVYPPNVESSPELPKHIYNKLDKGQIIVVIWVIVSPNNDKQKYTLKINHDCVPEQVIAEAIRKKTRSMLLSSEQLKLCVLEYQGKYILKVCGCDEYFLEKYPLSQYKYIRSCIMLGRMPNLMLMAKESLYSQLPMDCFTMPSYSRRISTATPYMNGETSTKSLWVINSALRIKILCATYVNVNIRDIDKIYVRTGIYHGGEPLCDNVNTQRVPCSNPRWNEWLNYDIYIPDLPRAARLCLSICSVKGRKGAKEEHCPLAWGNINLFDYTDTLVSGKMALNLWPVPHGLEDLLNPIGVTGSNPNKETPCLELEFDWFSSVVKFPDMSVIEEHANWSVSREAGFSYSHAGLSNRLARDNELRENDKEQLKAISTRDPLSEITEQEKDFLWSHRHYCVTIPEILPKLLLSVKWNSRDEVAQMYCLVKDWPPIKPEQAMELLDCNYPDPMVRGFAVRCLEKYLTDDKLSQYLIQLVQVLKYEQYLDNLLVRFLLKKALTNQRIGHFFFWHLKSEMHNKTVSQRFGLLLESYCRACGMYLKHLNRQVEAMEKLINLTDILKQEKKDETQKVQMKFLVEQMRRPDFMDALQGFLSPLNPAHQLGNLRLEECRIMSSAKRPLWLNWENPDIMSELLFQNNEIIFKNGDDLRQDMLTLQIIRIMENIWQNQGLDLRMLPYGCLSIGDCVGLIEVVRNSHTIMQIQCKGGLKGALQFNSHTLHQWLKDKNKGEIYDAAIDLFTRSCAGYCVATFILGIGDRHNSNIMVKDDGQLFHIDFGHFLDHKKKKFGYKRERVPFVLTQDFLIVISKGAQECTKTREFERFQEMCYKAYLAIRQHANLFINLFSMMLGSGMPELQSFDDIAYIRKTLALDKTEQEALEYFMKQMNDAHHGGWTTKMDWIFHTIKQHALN
Sequence of recombinant PI3 kinase α (P27986 whole entry partner, the tested form may be a part): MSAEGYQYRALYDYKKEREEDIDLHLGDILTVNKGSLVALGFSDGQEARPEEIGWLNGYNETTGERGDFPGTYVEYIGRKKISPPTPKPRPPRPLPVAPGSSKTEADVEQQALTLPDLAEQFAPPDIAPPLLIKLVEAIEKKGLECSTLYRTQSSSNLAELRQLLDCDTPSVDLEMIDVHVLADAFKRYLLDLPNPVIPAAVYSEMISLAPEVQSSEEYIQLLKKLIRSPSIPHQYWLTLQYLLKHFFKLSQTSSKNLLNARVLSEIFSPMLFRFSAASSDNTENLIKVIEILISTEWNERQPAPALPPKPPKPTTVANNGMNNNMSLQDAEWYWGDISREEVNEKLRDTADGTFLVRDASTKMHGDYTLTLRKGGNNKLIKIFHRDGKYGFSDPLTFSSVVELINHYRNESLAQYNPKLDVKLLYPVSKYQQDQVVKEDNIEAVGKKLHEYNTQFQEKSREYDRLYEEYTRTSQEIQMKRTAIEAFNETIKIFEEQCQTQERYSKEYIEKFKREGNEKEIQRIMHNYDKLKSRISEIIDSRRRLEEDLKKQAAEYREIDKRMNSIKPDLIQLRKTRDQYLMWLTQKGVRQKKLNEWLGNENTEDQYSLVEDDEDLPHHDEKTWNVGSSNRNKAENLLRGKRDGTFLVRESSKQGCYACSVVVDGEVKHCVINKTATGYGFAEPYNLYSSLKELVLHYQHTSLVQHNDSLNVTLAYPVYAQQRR
Sequence of recombinant PI3 kinase δ (O00329 whole entry): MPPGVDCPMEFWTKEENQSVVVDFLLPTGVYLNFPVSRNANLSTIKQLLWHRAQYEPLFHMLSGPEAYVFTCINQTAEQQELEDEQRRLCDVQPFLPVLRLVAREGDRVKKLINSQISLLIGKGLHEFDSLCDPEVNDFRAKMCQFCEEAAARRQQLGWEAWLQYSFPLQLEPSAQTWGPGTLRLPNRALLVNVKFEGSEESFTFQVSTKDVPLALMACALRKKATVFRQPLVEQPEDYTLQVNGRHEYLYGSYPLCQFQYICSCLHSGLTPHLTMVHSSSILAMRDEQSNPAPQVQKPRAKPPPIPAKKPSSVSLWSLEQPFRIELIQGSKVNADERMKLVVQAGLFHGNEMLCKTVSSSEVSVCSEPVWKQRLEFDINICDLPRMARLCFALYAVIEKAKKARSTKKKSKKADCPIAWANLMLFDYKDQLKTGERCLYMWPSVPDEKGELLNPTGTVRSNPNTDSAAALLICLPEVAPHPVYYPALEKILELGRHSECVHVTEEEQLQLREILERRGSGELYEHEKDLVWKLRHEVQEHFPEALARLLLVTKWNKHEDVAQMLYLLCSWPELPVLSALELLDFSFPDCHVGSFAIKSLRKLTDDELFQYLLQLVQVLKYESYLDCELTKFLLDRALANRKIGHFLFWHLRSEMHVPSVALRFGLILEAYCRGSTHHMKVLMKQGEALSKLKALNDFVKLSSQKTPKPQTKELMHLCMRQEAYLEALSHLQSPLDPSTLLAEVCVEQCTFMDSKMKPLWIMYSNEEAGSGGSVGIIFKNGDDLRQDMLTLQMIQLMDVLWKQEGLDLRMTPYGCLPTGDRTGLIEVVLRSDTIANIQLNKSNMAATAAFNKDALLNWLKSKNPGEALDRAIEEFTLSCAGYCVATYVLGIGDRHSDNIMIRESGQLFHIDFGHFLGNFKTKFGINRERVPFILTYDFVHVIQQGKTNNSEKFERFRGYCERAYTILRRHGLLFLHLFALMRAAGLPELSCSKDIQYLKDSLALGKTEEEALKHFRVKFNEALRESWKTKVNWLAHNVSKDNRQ
Sequence of recombinant PI3 kinase δ (P27986 whole entry partner): as the sequence (P27986 whole entry partner, the tested form may be a part) above
Sequence of recombinant PI3 kinase γ (P48736 whole entry): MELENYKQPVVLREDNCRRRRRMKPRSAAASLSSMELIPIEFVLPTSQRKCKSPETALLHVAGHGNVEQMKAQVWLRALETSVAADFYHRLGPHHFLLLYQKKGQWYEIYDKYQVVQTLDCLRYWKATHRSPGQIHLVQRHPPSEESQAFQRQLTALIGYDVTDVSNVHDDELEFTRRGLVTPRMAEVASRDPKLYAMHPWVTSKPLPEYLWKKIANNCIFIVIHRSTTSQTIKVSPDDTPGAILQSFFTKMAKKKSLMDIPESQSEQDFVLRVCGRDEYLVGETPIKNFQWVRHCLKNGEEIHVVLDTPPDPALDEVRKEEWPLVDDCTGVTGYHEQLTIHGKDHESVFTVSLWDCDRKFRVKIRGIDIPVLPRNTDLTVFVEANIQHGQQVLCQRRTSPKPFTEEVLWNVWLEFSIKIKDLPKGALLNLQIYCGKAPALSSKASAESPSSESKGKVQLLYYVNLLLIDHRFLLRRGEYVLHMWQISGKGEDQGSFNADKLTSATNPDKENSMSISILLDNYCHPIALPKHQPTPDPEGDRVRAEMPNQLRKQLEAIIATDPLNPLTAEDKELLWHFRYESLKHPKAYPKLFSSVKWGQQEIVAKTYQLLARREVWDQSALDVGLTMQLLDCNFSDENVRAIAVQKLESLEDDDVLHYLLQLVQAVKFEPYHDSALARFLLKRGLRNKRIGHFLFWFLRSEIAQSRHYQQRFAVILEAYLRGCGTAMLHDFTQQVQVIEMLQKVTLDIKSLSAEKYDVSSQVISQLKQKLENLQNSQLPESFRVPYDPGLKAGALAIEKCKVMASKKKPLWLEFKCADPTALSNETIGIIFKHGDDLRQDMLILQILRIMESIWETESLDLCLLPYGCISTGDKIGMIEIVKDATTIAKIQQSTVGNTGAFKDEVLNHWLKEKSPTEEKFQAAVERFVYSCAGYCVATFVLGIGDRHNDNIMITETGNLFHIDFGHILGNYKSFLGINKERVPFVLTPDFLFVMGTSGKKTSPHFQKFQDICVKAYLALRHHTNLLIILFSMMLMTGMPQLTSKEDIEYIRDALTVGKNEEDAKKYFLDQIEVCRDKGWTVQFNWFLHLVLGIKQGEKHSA

As for `NC(=O)NCC#Cc1cccc2nc(Cn3nc(-c4ccc(O)cc4)c4c(N)ncnc43)n(Cc3ccccc3Cl)c(=O)c12` [Example 49, 1-(3-(2-((4-Amino-3-(4-hydroxyphenyl)-1H-pyrazolo[3,4-d]pyrimidin-1-yl)methyl)-3-(2-chlorobenzyl)-4-oxo-3,4-dihydroquinazolin-5-yl)prop-2-ynyl)urea], the IC50 at recombinant PI3 kinase α is 50 to 1000 nM; at recombinant PI3 kinase γ, 50 to 1000 nM; on recombinant PI3 kinase δ, under 50 nM; in data set [1], under 10 nM. The “Cell Viability MTT Assay in D-U937 cells at 4 hr” value in data set [2] was “− (− <30%)”. Further, the “Cell Viability MTT Assay in D-U937 cells at 24 hr” value in data set [2] is reported as “− (− <30%)”.
For the compound `COCCOCCOCC#Cc1cccc2nc(Cn3nc(-c4cccc(O)c4)c4c(N)ncnc43)n(Cc3ccccc3F)c(=O)c12` [Example 50, 2-((4-Amino-3-(3-hydroxyphenyl)-1H-pyrazolo[3,4-d]pyrimidin-1-yl)methyl)-3-(2-fluorobenzyl)-5-(3-(2-(2-methoxyethoxy)ethoxy)prop-1-ynyl)quinazolin-4(3H)-one], the IC50 was 50 to 1000 nM on recombinant PI3 kinase α, 50 to 1000 nM at recombinant PI3 kinase γ, under 50 nM at recombinant PI3 kinase δ and under 10 nM in data set [1]. The “Cell Viability MTT Assay in D-U937 cells at 4 hr” value in data set [2] was “− (− <30%)”. Further, in data set [2], the “Cell Viability MTT Assay in D-U937 cells at 24 hr” value is “− (− <30%)”.
`C#Cc1cccc2nc(Cn3nc(-c4ccc(F)c(O)c4)c4c(N)ncnc43)n(Cc3ccccc3Cl)c(=O)c12` [Example 51, 2-((4-Amino-3-(4-fluoro-3-hydroxyphenyl)-1H-pyrazolo [3,4-d]pyrimidin-1-yl)methyl)-3-(2-chlorobenzyl)-5-ethynylquinazolin-4(3H)-one]: the IC50 at recombinant PI3 kinase α was 50 to 1000 nM; on recombinant PI3 kinase γ, 50 to 1000 nM; at recombinant PI3 kinase δ, under 50 nM; in data set [1], under 10 nM. Moreover, in data set [2], the “Cell Viability MTT Assay in D-U937 cells at 4 hr” value is “− (− <30%)”. In data set [2], the “Cell Viability MTT Assay in D-U937 cells at 24 hr” value is recorded as “− (− <30%)”.
Consider `Nc1ncnc2c1c(-c1ccc(O)cc1)nn2Cc1nc2cccc(C#CCOc3ccccc3)c2c(=O)n1Cc1ccccc1Cl` [Example 52, 2-((4-Amino-3-(4-hydroxyphenyl)-1H-pyrazolo[3,4-d]pyrimidin-1-yl)methyl)-3-(2-chlorobenzyl)-5-(3-phenoxyprop-1-ynyl)quinazolin-4(3H)-one], for which the IC50 on recombinant PI3 kinase α is 50 to 1000 nM; on recombinant PI3 kinase γ, under 50 nM; at recombinant PI3 kinase δ, under 50 nM; in data set [1], under 10 nM. Further, the “Cell Viability MTT Assay in D-U937 cells at 4 hr” value in data set [2] is recorded as “− (− <30%)”. Also, the “Cell Viability MTT Assay in D-U937 cells at 24 hr” value in data set [2] is “− (− <30%)”.
In the case of `Nc1ncnc2c1c(-c1ccc(O)cc1)nn2Cc1nc2cccc(C#CCCCC(=O)N3CCOCC3)c2c(=O)n1Cc1ccccc1F` [Example 53, 2-((4-Amino-3-(4-hydroxyphenyl)-1H-pyrazolo[3,4-d]pyrimidin-1-yl)methyl)-3-(2-fluorobenzyl)-5-(6-morpholino-6-oxohex-1-yn-1-yl)quinazolin-4(3H)-one], the half-maximal inhibitory concentration (IC50) was under 50 nM at recombinant PI3 kinase α, under 50 nM on recombinant PI3 kinase γ, under 50 nM on recombinant PI3 kinase δ and under 10 nM in data set [1]. Also, the “Cell Viability MTT Assay in D-U937 cells at 4 hr” value in data set [2] is listed as “− (− <30%)”. Besides, the “Cell Viability MTT Assay in D-U937 cells at 24 hr” value in data set [2] is “− (− <30%)”.
For the compound `COCCNC(=O)CCCC#Cc1cccc2nc(Cn3nc(-c4cccc(O)c4)c4c(N)ncnc43)n(Cc3ccccc3Cl)c(=O)c12` [Example 54, 6-(2-((4-Amino-3-(3-hydroxyphenyl)-1H-pyrazolo[3,4-d]pyrimidin-1-yl)methyl)-3-(2-chlorobenzyl)-4-oxo-3,4-dihydroquinazolin-5-yl)-N-(2-methoxyethyl)hex-5-ynamide], the IC50 at recombinant PI3 kinase α is under 50 nM; on recombinant PI3 kinase γ, under 50 nM; at recombinant PI3 kinase δ it was under 50 nM; in data set [1] it was under 10 nM. Moreover, the “Cell Viability MTT Assay in D-U937 cells at 4 hr” value in data set [2] was “− (− <30%)”. Besides, in data set [2], the “Cell Viability MTT Assay in D-U937 cells at 24 hr” value was “− (− <30%)”.
For the compound `Nc1ncnc2c1c(-c1cccc(O)c1)nn2Cc1nc2cccc(C#CCCCCC(=O)N3CCOCC3)c2c(=O)n1Cc1ccccc1Cl` [Example 55, 2-((4-Amino-3-(3-hydroxyphenyl)-1H-pyrazolo[3,4-d]pyrimidin-1-yl)methyl)-3-(2-chlorobenzyl)-5-(7-morpholino-7-oxohept-1-yn-1-yl)quinazolin-4(3H)-one], the IC50 at recombinant PI3 kinase α is 50 to 1000 nM; on recombinant PI3 kinase γ, under 50 nM; at recombinant PI3 kinase δ, under 50 nM; in data set [1], under 10 nM. Also, in data set [2], the “Cell Viability MTT Assay in D-U937 cells at 4 hr” value is listed as “− (− <30%)”. In addition, the “Cell Viability MTT Assay in D-U937 cells at 24 hr” value in data set [2] is on record as “− (− <30%)”.
For `Nc1ncnc2c1c(-c1cccc(O)c1)nn2Cc1nc2cccc(C#CCCC(=O)N3CCOCC3)c2c(=O)n1Cc1ccccc1Cl` [Example 56], the IC50 is under 50 nM on recombinant PI3 kinase α, under 50 nM on recombinant PI3 kinase γ, under 50 nM at recombinant PI3 kinase δ and under 10 nM in data set [1]. The “Cell Viability MTT Assay in D-U937 cells at 4 hr” value in data set [2] is recorded as “− (− <30%)”. Also, the “Cell Viability MTT Assay in D-U937 cells at 24 hr” value in data set [2] is recorded as “− (− <30%)”.
Regarding `Nc1ncnc2c1c(-c1ccc(O)cc1)nn2Cc1nc2cccc(C#CCCCC(=O)N3CCCCC3)c2c(=O)n1Cc1ccccc1Cl` [Example 58, 2-((4-Amino-3-(4-hydroxyphenyl)-1H-pyrazolo[3,4-d]pyrimidin-1-yl)methyl)-3-(2-chlorobenzyl)-5-(6-oxo 6-(piperidin-1-yl)hex-1-yn-1-yl)quinazolin-4(3H)-one], the IC50 at recombinant PI3 kinase α was 50 to 1000 nM; on recombinant PI3 kinase γ it was under 50 nM; at recombinant PI3 kinase δ it was under 50 nM; in data set [1], under 10 nM. In data set [2], the “Cell Viability MTT Assay in D-U937 cells at 4 hr” value was “− (− <30%)”. Further, in data set [2], the “Cell Viability MTT Assay in D-U937 cells at 24 hr” value is reported as “− (− <30%)”.
Turning to `CCN(CC)C(=O)CCCC#Cc1cccc2nc(Cn3nc(-c4ccc(O)cc4)c4c(N)ncnc43)n(Cc3ccccc3Cl)c(=O)c12` [Example 59, 6-(2-((4-Amino-3-(4-hydroxyphenyl)-1H-pyrazolo[3,4-d]pyrimidin-1-yl)methyl)-3-(2-chlorobenzyl)-4-oxo-3,4-dihydroquinazolin-5-yl)-N,N-diethylhex-5-ynamide], the IC50 on recombinant PI3 kinase α was 50 to 1000 nM; at recombinant PI3 kinase γ it was under 50 nM; at recombinant PI3 kinase δ it was under 50 nM; in data set [1], under 10 nM. In data set [2], the “Cell Viability MTT Assay in D-U937 cells at 4 hr” value is listed as “− (− <30%)”. Further, the “Cell Viability MTT Assay in D-U937 cells at 24 hr” value in data set [2] is listed as “− (− <30%)”.
For the compound `Nc1ncnc2c1c(-c1cccc(O)c1)nn2Cc1nc2cccc(C#CCCCCC(=O)O)c2c(=O)n1Cc1ccccc1Cl` [Example 60, 7-(2-((4-Amino-3-(3-hydroxyphenyl)-1H-pyrazolo[3,4-d]pyrimidin-1-yl)methyl)-3-(2-chlorobenzyl)-4-oxo-3,4-dihydroquinazolin-5-yl)hept-6-ynoic acid], the IC50 on recombinant PI3 kinase α was 50 to 1000 nM; at recombinant PI3 kinase γ it was under 50 nM; on recombinant PI3 kinase δ it was under 50 nM; in data set [1], under 10 nM. In addition, the “Cell Viability MTT Assay in D-U937 cells at 4 hr” value in data set [2] was “− (− <30%)”. Moreover, the “Cell Viability MTT Assay in D-U937 cells at 24 hr” value in data set [2] is given as “− (− <30%)”.
As for `COc1cc(Cn2c(Cn3nc(-c4ccc(O)cc4)c4c(N)ncnc43)nc3cccc(C#CCCCC(=O)N4CCOCC4)c3c2=O)cc(C(F)(F)F)c1` [Example 62, 2-((4-Amino-3-(4-hydroxyphenyl)-1H-pyrazolo[3,4-d]pyrimidin-1-yl)methyl)-3-(3-methoxy-5-(trifluoromethyl)benzyl)-5-(6-morpholino-6-oxohex-1-yn-1-yl)quinazolin-4(3H)-one], the IC50 on recombinant PI3 kinase α was 50 to 1000 nM; at recombinant PI3 kinase γ it was under 50 nM; at recombinant PI3 kinase δ it was under 50 nM; in data set [1], under 10 nM. Also, the “Cell Viability MTT Assay in D-U937 cells at 4 hr” value in data set [2] was “− (− <30%)”. Besides, the “Cell Viability MTT Assay in D-U937 cells at 24 hr” value in data set [2] was “− (− <30%)”.
For `Nc1ncnc2c1c(-c1ccc(O)cc1)nn2Cc1nc2cccc(C#CCCCC(=O)N3CCOCC3)c2c(=O)n1Cc1cc2ccccc2s1` [Example 63, 2-((4-Amino-3-(4-hydroxyphenyl)-1H-pyrazolo[3,4-d]pyrimidin-1-yl)methyl)-3-(benzo[b]thiophen-2-ylmethyl)-5-(6-morpholino-6-oxohex-1-yn-1-yl)quinazolin-4(3H)-one], the IC50 on recombinant PI3 kinase α was 50 to 1000 nM; at recombinant PI3 kinase γ it was under 50 nM; on recombinant PI3 kinase δ it was under 50 nM; in data set [1], under 10 nM. Also, the “Cell Viability MTT Assay in D-U937 cells at 4 hr” value in data set [2] is “− (− <30%)”. In data set [2], the “Cell Viability MTT Assay in D-U937 cells at 24 hr” value was “− (− <30%)”.
In the case of `COc1cccc(Cn2c(Cn3nc(-c4ccc(O)cc4)c4c(N)ncnc43)nc3cccc(C#CCCCC(=O)N4CCOCC4)c3c2=O)c1F` [Example 64, 2-((4-Amino-3-(4-hydroxyphenyl)-1H-pyrazolo[3,4-d]pyrimidin-1-yl)methyl)-3-(2-fluoro-3-methoxybenzyl)-5-(6-morpholino-6-oxohex-1-yn-1-yl)quinazolin-4(3H)-one], the IC50 on recombinant PI3 kinase α was 50 to 1000 nM; at recombinant PI3 kinase γ, under 50 nM; at recombinant PI3 kinase δ it was under 50 nM; in data set [1], under 10 nM. For the same compound, in data set [2], the “Cell Viability MTT Assay in D-U937 cells at 4 hr” value was “− (− <30%)”. Moreover, in data set [2], the “Cell Viability MTT Assay in D-U937 cells at 24 hr” value was “− (− <30%)”.

A word on the IC50: it is the point on the concentration scale where inhibition reaches its midpoint.

Values taken from patent US9321773B2, “Compounds” (Respivert Ltd, priority 2009, dated 2016).
